From US20250230193A1, “CYCLIC COMPOUND HAVING SELECTIVE KRAS INHIBITORY EFFECT ON HRAS AND NRAS” (CHUGAI SEIYAKU KABUSHIKI KAISHA, priority 2022, published 2025)
Where a SMILES comes first, the peptide text is derived from it. Bridges are numbered along the chain shown (N, C = ends). [ ]: non-standard residue; d: D form. The star is where a group is joined. hPhe(3-Cl-4-CF3) = N[C@@H](CCc1ccc(C(F)(F)F)c(Cl)c1)C(=O)O; NPrPhe(4-CF3) = CCCN[C@@H](Cc1ccc(C(F)(F)F)cc1)C(=O)O; NEtPhe(4-Me) = CCN[C@@H](Cc1ccc(C)cc1)C(=O)O; NMeGly(cPent) = CN[C@H](C(=O)O)C1CCCC1; Gly(cPent) = N[C@H](C(=O)O)C1CCCC1; Hyp = O=C(O)[C@@H]1C[C@@H](O)CN1; NMeD = CN[C@@H](CC(=O)O)C(=O)O; NMeL = CN[C@@H](CC(C)C)C(=O)O; Morpholide = C1CN(*)CCO1; Ac5c = NC1(C(=O)O)CCCC1; Aze = O=C(O)[C@@H]1CCN1; X45 = C1CCC(*)OC1; Sar = CNCC(=O)O

What was measured:
[1] = target: GDP-bound NRAS wild-type protein (Homo sapiens, UniProt P01111); assay: Binding to NRAS by surface plasmon resonance (SPR), Single Cycle Kinetics
Sequence of GDP-bound NRAS wild-type protein (P01111 whole entry): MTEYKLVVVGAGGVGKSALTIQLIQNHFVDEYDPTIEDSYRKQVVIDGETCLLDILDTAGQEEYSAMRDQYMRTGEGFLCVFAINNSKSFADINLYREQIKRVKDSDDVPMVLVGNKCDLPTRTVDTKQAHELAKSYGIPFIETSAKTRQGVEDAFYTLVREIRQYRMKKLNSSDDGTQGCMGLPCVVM

[2] = target: GDP-bound HRAS wild-type protein (Homo sapiens, UniProt P01112); assay: Binding to HRAS by surface plasmon resonance (SPR), Single Cycle Kinetics
Sequence of GDP-bound HRAS wild-type protein (P01112 whole entry): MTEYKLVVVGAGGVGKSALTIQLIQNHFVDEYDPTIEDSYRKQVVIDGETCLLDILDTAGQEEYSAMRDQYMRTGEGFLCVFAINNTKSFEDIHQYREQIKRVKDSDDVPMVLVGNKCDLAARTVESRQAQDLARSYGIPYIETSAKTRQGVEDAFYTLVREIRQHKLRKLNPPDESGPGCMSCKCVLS

[3] = KD ratio, GDP-bound NRAS wild-type vs GDP-bound KRAS wild-type, SPR
[4] = KD ratio, GDP-bound HRAS wild-type vs GDP-bound KRAS wild-type, SPR
[5] = SPR, GDP-bound NRAS wild-type vs GDP-bound KRAS wild-type
[6] = SPR, GDP-bound HRAS wild-type vs GDP-bound KRAS wild-type

CCO[C@@H]1C[C@H]2C(=O)NC3(CCC3)C(=O)N(C)[C@@H](CC(F)F)C(=O)N(C)[C@H](C(=O)N3CCOCC3)CC(=O)N(C)[C@@H](CC(C)C)C(=O)N[C@@H]([C@@H](C)CC)C(=O)N(C)CC(=O)N(C)[C@H]3CCCCCN(C3=O)[C@@H](Cc3ccc(C(F)(F)F)cc3)C(=O)N(C)CC(=O)N[C@@H](CCc3cc(F)c(C(F)(F)F)c(F)c3)C(=O)N2C1 [PP0822]
NRAS/KRAS (ratio of KD value with respect to NRAS to KD value with respect to KRAS) [1, 3]: B (a compound having 3 or more and less than 10 is denoted as B) | HRAS/KRAS (ratio of KD value with respect to HRAS to KD value with respect to KRAS) [2, 4]: B (a compound having 3 or more and less than 10 is denoted as B)

CCCN1C(=O)CN(C)C(=O)[C@@H]2CCN2C(=O)[C@H](C2CCCC2)NC(=O)[C@H](CC(C)C)N(C)C(=O)C[C@@H](C(=O)N2CCOCC2)N(C)C(=O)[C@H](C2CCCC2)N(C)C(=O)C2(CCCC2)NC(=O)[C@@H]2CCCN2C(=O)[C@H](CCc2ccc(C(F)(F)F)c(Cl)c2)NC(=O)CN(C)C(=O)[C@@H]1Cc1ccc(C(F)(F)F)cc1 [PP0306] ([NMeL][Gly(cPent)][Aze][Sar][NPrPhe(4-CF3)][Sar][hPhe(3-Cl-4-CF3)]P[Ac5c][NMeGly(cPent)][NMeD]-Morpholide; lactam N-11)
NRAS/KRAS (ratio of KD for GDP-bound NRAS wild-type to KD for KRAS) ([1]; KD ratio NRAS/KRAS, SPR): B (a compound having 3 or more and less than 10 is denoted as B) | HRAS/KRAS (ratio of KD for GDP-bound HRAS wild-type to KD for KRAS) ([2]; KD ratio HRAS/KRAS, SPR): B (a compound having 3 or more and less than 10 is denoted as B)

CC[C@H](C)[C@@H]1NC(=O)[C@H](CC(C)C)N(C)C(=O)C[C@@H](C(=O)N2CCOCC2)N(C)C(=O)[C@H](C2CCCC2)N(C)C(=O)C2(CCCC2)NC(=O)[C@@H]2C[C@@H](OC3CCCCO3)CN2C(=O)[C@H](CCc2ccc(C(F)(F)F)c(Cl)c2)NC(=O)CN(C)C(=O)[C@H](Cc2ccc(C)cc2)N(CC)C(=O)CN(C)C(=O)CN(C)C1=O (some centres unmarked) [PP0068] ([NMeL]I[Sar][Sar][NEtPhe(4-Me)][Sar][hPhe(3-Cl-4-CF3)][Hyp](X45)[Ac5c][NMeGly(cPent)][NMeD]-Morpholide; lactam N-11)
NRAS/KRAS (ratio of KD for GDP-bound NRAS wild-type to KD for KRAS) ([1]; KD ratio NRAS/KRAS, SPR): C (A compound having a KD ratio of 0.1 or more and less than 3 is denoted as C) | HRAS/KRAS (ratio of KD for GDP-bound HRAS wild-type to KD for KRAS) ([2]; KD ratio HRAS/KRAS, SPR): C (A compound having a KD ratio of 0.1 or more and less than 3 is denoted as C)

CC[C@H](C)[C@@H]1NC(=O)[C@H](CC(C)C)N(C)C(=O)C[C@@H](C(=O)N(C)C)N(C)C(=O)[C@H](C2CCCC2)N(C)C(=O)C2(CCC2)NC(=O)[C@@H]2C[C@@H](C)CN2C(=O)[C@H](CCc2ccc(C(F)(F)F)c(Cl)c2)NC(=O)CN(C)C(=O)[C@H](Cc2ccc(C)cc2)N2CC/C=C\C[C@@H](C2=O)N(C)C(=O)CN(C)C1=O [PP1854]
NRAS/KRAS (ratio of KD value for NRAS to KD value for KRAS) [1, 3]: A (a compound having 10 or more and less than 20 is denoted as A) | HRAS/KRAS (ratio of KD value for HRAS to KD value for KRAS) [2, 4]: A (a compound having 10 or more and less than 20 is denoted as A)

CCC[C@H]1C(=O)N[C@@H]([C@@H](C)CC)C(=O)N(C)CC(=O)N(C)[C@H]2C/C=C\CCN(C2=O)[C@@H](Cc2ccc(C(F)(F)F)cc2)C(=O)N(C)CC(=O)N[C@@H](CCc2cc(F)c3c(c2)CCC3)C(=O)N2C[C@H](OCC)C[C@H]2C(=O)NC2(CC(C)(C)C2)C(=O)N(C)[C@@H](C2CCCC2)C(=O)N(C)[C@H](C(=O)N(C)C)CC(=O)N1C [PP2849]
NRAS/KRAS (ratio of KD value with respect to GDP-bound NRAS wild-type protein to KD value with respect to KRAS) ([1]; KD ratio NRAS/KRAS, class symbols): A (a compound having 10 or more and less than 20 is denoted as A) | HRAS/KRAS (ratio of KD value with respect to GDP-bound HRAS wild-type protein to KD value with respect to KRAS) ([2]; KD ratio HRAS/KRAS, class symbols): A (a compound having 10 or more and less than 20 is denoted as A)

CCCOC[C@H]1C(=O)N[C@@H]([C@@H](C)CC)C(=O)N(C2CC2)CC(=O)N(C)[C@H]2C/C=C\CCN(C2=O)[C@@H](CC2CCC(F)(F)CC2)C(=O)N(C)CC(=O)N[C@@H](CCc2ccc(C(F)(F)F)c(OC)c2)C(=O)N2C[C@@H](C)C[C@H]2C(=O)N(C)C2(CCC2)C(=O)N(C)[C@@H](C2CCCC2)C(=O)N(C)[C@H](C(=O)N(C)C)CC(=O)N1C [PP2379]
NRAS/KRAS (ratio of KD value with respect to NRAS to KD value with respect to KRAS) [1, 5]: A (a compound having 10 or more and less than 20 is denoted as A) | HRAS/KRAS (ratio of KD value with respect to HRAS to KD value with respect to KRAS) [2, 6]: A (a compound having 10 or more and less than 20 is denoted as A)

CCO[C@@H]1C[C@H]2C(=O)NC3(CC(C)(C)C3)C(=O)N(C)[C@@H](C(CC)CC)C(=O)N(C)[C@H](C(=O)N(C)C)CC(=O)N(C)[C@@H](CC(C)C)C(=O)N[C@@H]([C@@H](C)CC)C(=O)N(C)CC(=O)N(C)[C@H]3C/C=C\CCN(C3=O)[C@@H](Cc3ccc(C)cc3)C(=O)N(C)CC(=O)N[C@@H](CCc3ccc(Cl)c(Cl)c3)C(=O)N2C1 [PP2185]
NRAS/KRAS (ratio of KD value with respect to NRAS to KD value with respect to KRAS) [1, 5]: AA (a compound having 20 or more is denoted as AA) | HRAS/KRAS (ratio of KD value with respect to HRAS to KD value with respect to KRAS) [2, 6]: A (a compound having 10 or more and less than 20 is denoted as A)
